“Also recorded” adds a separate entry of the source.
B1: EX42: CYP719 from Argemone mexicana, B1NF19.1, SEQ ID NO: 321 (protein, listed as Argemone mexicana)
chain: MEEKIMTNNSPWILTSSTTTTTTILLSLLFTIFIILRRNKSSSSKMVWPTGPKTLPIIGNMNILGGTALHVVLHNLAKTYGNVMTIWIGSWRPVIVVSDIDRAWEVLVNKSSDYSARDMPEITKLATADWKTISSSDSGPFWTNLRKGLQNVALSPQNLSSQSKFQERDIIKTIQNLKEEAKMNNGIVKPLDHLKKAMVRLISRLIYGQDFDNDEYVEEMHHTIEELIRVSGYARLAEAFYYAKYLPSHKKAVREVLQANQRVQNLVRPLLSLNSPTNTYLHFLRSQNYEDEVIIFAIFEAYLLGVDSTSSTTAWALAYLIREPNVQEKLYEELKNFTNDNDRKMVKFEDLNKLQYLQAVVKETMRMKPIAPLAIPHKACRETSLMGRKVNQGTRVMVNIYALHHNQNVWKEPYKFNPERFLQKNQDGVDGKAMEQSLLPFSAGMRICAGMELGKLQFSFALANLVNAFKWSCVSDGVFPDMSDQLGFVLLMKTPLEAGIVPRM
B2: EX76: CYP719 from Nandina domestica, SEQ ID NO: 355 (protein, listed as Nandina domestica)
chain: MEESFWIVSATIVVVFVIATMFRKSSSISSKTEWPAGPKKLPVIGNLHQLGGDVLHVVLANLAKVYGTVMTVWVGSWKPMIVISDIDRAWEVLVNKSSDYSGRAMPEITEIISAKGKTISTSDSGPHWSNLRKGLQNVALSPHNIAAQSRFQESDITKMIKTLKQEAASNNGIVQPLDHLKKSTVRLISRLIFGQDFDDDEYVEAMHLAVEELIRVSGYARLAEAFYYAKYLPSHKRAVSEVWEANRRVKRIVKPRLSANPPPNCYLHFLSSQDYSEEMIIFAIFEAYLLGVDSTSSTTAWALGFLIREPKVQERLYQELKNCAGENGLIKVEDINKLPYLQAVLKETMRMKPIAPLAIPHKAVRETSLAGNKVEPGTRVMVNLYAIHHNPKVWIDPHKFKPERFLQGEENGGGNLKLMEQSLLPFSAGMRTCAGMELGKLQFGFSLANLVNAFQWDCAKKGMFPDMSDLLGFVLLMKTPLQAKIVPRGSPSINGY
B3: EX67: CYP719 from Glaucium flavum, SEQ ID NO: 346 (protein, listed as Glaucium flavum)
chain: MEMKSSVVFSYPAMEELFKSNPWVITGTTLAVLILMTTMFRKKSLSMKWPKGPKTLPIIGNMHLLGGTNLQVILHNMSKVYGNVMTIWIGSWRPVIVVSDIERAWEVLVNKSSDYSGRDMPEITKIISADWKTISTSDSGPHWTNLRKGLQNVALSPHNLAAQFQFQERDICKLIETLKEEAKLNNGIVKPLDHLKKATIRLISRLVFGQDFDNSKYVEDMHHAIEELIRVSGYARLADAFYYAKYLPSQKKAVRDVEEAQRRVQRLVRPFLSLNPPTNCYLHFLRSQNYSDEVIIFAIFEAYLLGVDSTSSTTAWALAFLVREPNVQEKLYQELKNFTAKNGREMLKVEDINKLPYLQAVIKETMRMKPIAPLAIPHKACRDTSLKGRKIDKGTQIMVNIYALHHNENVWKEPFKFMPERFLQTDQDVNGKAMDQSLLPFSAGMRICAGMELGKLQFSFSLANLLNTFQWSCVADGVLPDMSDQLGFVLLMKTPLEARITPRC
B4: EX101: CYP719 from Stylophorum diphyllum, SEQ ID NO: 380 (protein, listed as Stylophorum diphyllum)
chain: MESLIDFSNPAKMEELMSNPWIITAITLAVVIIMMTIFRRKSSSMKWPKGPKTLPIIGNMHLFGGTDLHVVLYNIAKVYGNVMTIWIGSWRPVIVISDIERAWEVLVNKSSDYSARDMPEITKLISSDWKTISTSDAGAFWTNLRKGLQNVALSPHNLASQFQFQESDIKKLIETIKEEGAVNNGIVKPLDHLKKAMVRLISRLIFGQDFDNDKYVEGMHHAIEELIRVSGYARLAEAFYYAKYLPSHKKAVRDVEEANRRVQKLVRPFLSLNPPTNTYLHFLRSQNYSEEVIIFAIFEAYLLGVDSTSSTTAWALAFLIREPNVQEKLYQELKNFTVKNGRDMLKVEDINKLPYLQATIKETMRMKPIAPLAIPHKACRDTSLMGSKIDKGTRVMVNIYALHHNEKIWKEPFKFMPERFLQTEGEVNGKAMEQSFLPFSAGMRICAGMELGKLQFNFALANLVNAFKWSCVADGVLPDMSDQLGFVLVMKTPLEARITPRC
B5: EX56: CYP719 from Chelidonium majus, SEQ ID NO: 335 (protein, listed as Chelidonium majus)
chain: MLLILIMDFRNSRSNLNPAKMEELMSDPWIITATTLAVVILLTTILRRKSSSMKWPKGPKTLPIIGNMHLFGGTDLHVVLYNIAKVYGNVMTIWIGSWRPVIVISDIERAWEVLVNKSSDYSARDMPEITKLISSDWKTISTSDAGAFWTNLRKGLQNVALSPHNLASQFQFQESDIKKLIETIKEEAAVNNGIVKPLDHLKKAMVRLISRLVFGQDFDNDEYVEGMHHAIEELIRVSGYARLAEAFYYAKYLPSHKKAVRDVEEANRRVQKLVRPFLSLNPPTNTYLHFLRSQNYSEEVIIFAIFEAYLLGVDSTSSTTAWALAFLIREPNVQEKLYQELKNFTVKNGRDMLKVEDINKLPYLQATIKETMRMKPIAPLAIPHKACRDTSLKGSKIDKGTRVMVNIYALHHNEKIWKEPFKFMPERFLQTEGENGKAMEQSFLPFSAGMRICAGMELGKLQFNFALANLVNAFKWSCVADGVLPDMSDQLGFVLVMKTPLEARITSRC
B6: EX96: CYP719 from Sanguinaria canadensis, SEQ ID NO: 375 (protein, listed as Sanguinaria canadensis)
chain: MEFEKIMMSNPWILAATTAVVFISITAIFFRRKSSSMEWPTGPKTLPIIGNMHLLGGTALHVVLHNFAKIYGNVMTIWIGSWRPVIVVSDIDRAWEVLVNKSSDYSARDMPEITKIISADWKTISTSDSGPFWTNLRKGLQNVALSPHNLAAQARFQERDISKMIETLKEEAALNNGIVKPLDHLKKATVRLISRLIYGQEFDNNKYVEDMHHAIEELIRVSGYARLAEAFYYAKYLPSHKKAVRDVEEANRRVKNLVRPFLSSNPPTNCYLHFLRTQNYPEEVIIFAIFEAYLLGVDSTSSTTAWALAFLVREPNVQEKLYQELKNFTTNNDRKMLKVEDINKLQYLQAVIKETMRMKPIAPLAIPHKACKETSLMGSKVDKGTRVMVNIYALHHNQKVWKEPYKFMPERFLETDNQDGNVGKAMEQSLLPFSAGMRICAGMELGKLQFTFSLANLVNAFKWSCVSDGVLPDMSDQLGFVLLMKNPLEARIVPRS

Legend:
[1] = Relative abundance of BIAs in culture supernatants and cell extracts; format: cell-based, Saccharomyces cerevisiae; details: for fraction in which the BIA is mainly found (supernatant or cell extract): strains with heterologous enzymes
Procedure: Whole cell substrate feeding assays were used to test the function of each enzyme block individually and in combinations. To prepare the cells for the feeding assays, a colony of S. cerevisiae was inoculated in YNB-DO-GLU and incubated for 24 hours. Cultures were diluted to an OD600 of 0.8 into 6 ml of fresh YNB-DO-GLU and incubated for an additional 7 hours. Cells were harvested by centrifugation at 2000×g for 2 min. Supernatants were decanted and cells were suspended in 2 ml of Tris-EDTA (10 mM Tris-HCl, 1 mM EDTA, pH 8), containing 10 μM of one of the following feeding substrates: (R,S)-norlaudanosoline, (S)-reticuline, (S)-scoulerine or (S)-stylopine. Cells were incubated for 16 hours then harvested by centrifugation at 15000×g for 1 min. For BIA extraction from cells, the cell pellet was suspended in 500 μl methanol with ˜50 μl acid-washed glass beads and vortexed for 30 min. Cell extracts were clarified by centrifugation at 15000×g for 1 min and used directly for LC-MS analysis.
Detection of alkaloids in the sanguinarine biosynthetic pathway was performed by FT-MS using a 7T-LTQ FT ICR instrument (Thermo Scientific, Bremen, Germany). Alkaloids were separated by reverse phase HPLC (Perkin Elmer SERIES 200 Micropump, Norfolk, Conn.) using an Agilent Zorbax™ Rapid Resolution HT C18 2.1*30 mm, 1.8 micron column. Solvent A (0.1% acetic acid) and solvent B (100% acetonitrile) were used in a gradient elution to separate the metabolites of interest as follows: 0-1 min at 100% A, 1-6 min 0 to 95% B (linear gradient), 7-8 min 95% B, 8-8.2 min 100% A, followed by a 1 min equilibration at 100% A. Three microliters of either cell extract or supernatant fraction were loaded on the HPLC column run at a flow rate of 0.25 ml/min. Dilutions in methanol were performed to keep alkaloid concentrations within the range of standard curve values and avoid saturating FT signals. Following LC separation, metabolites were injected into the LTQ-FT-MS (ESI source in positive ion mode) using the following parameters: resolution, 100000; scanning range, 250 to 450 AMU; capillary voltage, 5 kV; source temperature, 350° C.; AGC target setting for full MS were set at 5×10^5 ions. Identification of alkaloids was done using retention time and exact mass (<2 ppm) of the monoisotopic mass of the protonated molecular ion [M+H]^+. LC-FT-MS data were processed using the freely available program Maven^56. When available authentic standards were used to confirm the identity of the BIA intermediates (using HPLC retention times and exact masses) and to quantify sanguinarine alkaloids. When unavailable, we assumed equal ionization efficiency between an intermediate and the closest available quantifiable alkaloid (m/z 302 and m/z=316: reticuline; cheilanthifoline: stylopine).
To confirm functional expression of enzymes, plasmids expressing each of the three blocks were individually transformed into S. cerevisiae and cultures of the strains were supplemented with either (R,S)-norlaudanosoline, (S)-reticuline, (S)-scoulerine or (S)-stylopine. Functional expression was verified by detection of the expected end products. As negative controls, yeast strains lacking enzyme blocks were incubated with each of the pathway intermediate to evaluate substrate recovery and to assess the relative proportion recovered in cellular extracts versus culture supernatants.

cheilanthifoline = experiment: CYP719 Ring A closure of cheilanthifoline to stylopine in GC1333; format: cell-based, Saccharomyces cerevisiae
Procedure: FIG. 11A-B: showing conversion of (S)-cheilanthifoline (FIG. 11A) or (S)-nandinine (FIG. 11B) to (S)-stylopine by purchased CYP719s. Plasmids harboring CYP719s were transformed into GC1333 containing an integrated PsCPR. Strains were incubated with the appropriate BIA overnight, and then total BIAs were extracted and total molar ratios were compared. PsSPSΔN was used as a control.
The 10 CYP719s with 95% activity on Ring A of scoulerine and the 10 CYP719s with activity on Ring B of scoulerine were tested for activity on cheilanthifoline and nandinine, respectively, in order to generate a branched stylopine synthesis pathway. […] CYP719s PsCFS and EX101, capable of converting >98% of scoulerine to cheilanthifoline and nandinine, respectively, were incubated with scoulerine. After 16 h, cells were pelleted and the supernatant fraction was collected. The supernatant was then applied to fresh yeast strains in order to supplement them with either TE containing nandinine or cheilanthifoline as necessary.

Row | Molecule | conversion of cheilanthifoline to stylopine (cheilanthifoline) [%] | further results
1 | Oc1ccc(CC2NCCc3cc(O)c(O)cc32)cc1O (racemic) [(R,S)-norlaudanosoline] | – | share of fed BIA found in the cell extract after 16 hours of incubation ([1]; wild-type / negative control cells, 16 hours): 10%; share of fed BIA found in the cell extract, initially ([1]; wild-type cells, 0 hours): 3%
2 | c1cc2c(c3c1C[C@H]1c4cc5c(cc4CCN1C3)OCO5)OCO2 [(S)-stylopine] | – | fraction in which the BIA is mainly found (supernatant or cell extract) ([1]; 16 hours): predominantly found in the cell extract; also recorded: mostly found in the cellular extract fraction
3 | COc1cc2c(cc1O)C1Cc3ccc4c(c3CN1CC2)OCO4 (stereo not drawn) [Cheilanthifoline, cheilanthifoline] | – | fraction in which the BIA is mainly found (supernatant or cell extract) ([1]; 16 hours): mainly found in the supernatant
4 | C[N@@+]12CCc3cc4c(cc3[C@@H]1Cc1ccc3c(c1C2)OCO3)OCO4 [N-methylstylopine] | – | share of BIA found in the culture supernatant ([1]; Block 3 feeding assay, 16 hours): Approximately 55%
5 | CN1Cc2c(ccc3c2OCO3)-c2ccc3cc4c(cc3c21)OCO4 [dihydrosanguinarine] | – | fraction in which the BIA is mainly found (supernatant or cell extract) ([1]; 16 hours): mostly found in the cellular extract fraction
6 | B1 | > 98 | –
7 | B2 | > 98 | –
8 | B3 | > 98 | –
9 | B4 | > 98 | –
10 | B5 | > 98 | –
11 | B6 | > 98 | –

— US20160340704A1, “METHOD OF MAKING A BENZYLISOQUINOLINE ALKALOID (BIA) METABOLITE, ENZYMES THEREFORE” (VALORBEC SOCIÉTÉ EN COMMANDITE, priority 2014, published 2016)
